Patent US20240382465A1, “AROMATIC ACETYLENE DERIVATIVE, AND PREPARATION METHOD THEREFOR AND USE THEREOF” (priority 2021, published 2024)
Values after ≈ are worked out from the molar mass of the structure shown. Where two headings read alike, the source gives them in different places.

How the values were obtained:
E. coli ATCC 25922 = test: Antibacterial activity, MIC by broth microdilution (CLSI); assay type: cell-based; conditions: Escherichia coli, ATCC25922; E. coli ATCC 25922, 35° C., 18 to 24 hours; read-out: MIC(E. coli)
Method: (§1) The in vitro minimum inhibitory concentration (MIC) was determined in accordance with the CLSI guidelines, and was measured using the broth microdilution method.
(§2) The experimental process is briefly described as follows: The test compound was dissolved in DMSO to prepare a […] stock solution, which was then prepared into 11 twice-diluted 100× high-concentration working solutions (the final concentration of the system was 64 μg/mL-0.06 μg/mL) using DMSO. The strains (K. pneumoniae ATCC13883 and E. coli ATCC 25922) frozen in −80° C. glycerol were inoculated into solid agar medium, placed in an incubator at 35° C. for 18-24 hours of incubation. After the preparation of strains was completed, an appropriate amount of solid plate culture was collected, resuspended in physiological saline, and mixed well. The bacterial suspension was adjusted to a suitable turbidity using a turbidity meter, containing approximately 1×10^8 cfu/mL bacteria. Then the bacterial suspension with the adjusted turbidity was diluted to a bacterial concentration of 5×10^5 cfu/ml using the culture medium for measurement, to complete the preparation of the inoculum solution. 198 μL of the inoculum solution was inoculated into a 96-well plate, and then added with 2 μL of a 100× high-concentration working solution of the compound. Then the 96-well plate was placed at 35° C. for 18 to 24 hours of incubation.

K. pneumoniae ATCC13883 = test: as above; assay type: cell-based; conditions: Klebsiella pneumoniae; K. pneumoniae ATCC13883, 35° C., 18 to 24 hours; read-out: MIC(K. Pneumoniae)
Method: as §1, §2

[1] = biological target: recombinant Pseudomonas aeruginosa LpxC (Pseudomonas aeruginosa (strain ATCC 15692 / DSM 22644 / CIP 104116 / JCM 14847 / LMG 12228 / 1C / PRS 101 / PAO1), UniProt P47205); test: Inhibition of LpxC enzymatic activity (fluorescamine assay); assay type: biochemical
Procedure, shortened: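 Recombinant P. aeruginosa LpxC (5 nM) with substrate UDP-3-O-(R-3-hydroxydecanoyl)-GlcNAc (10 μM), 120 min at 25 °C; compound 8 points, 4-fold dilution, 0.61-10,000 nM. Product detected by fluorescamine (ex 390/em 495 nm) after stopping with pH 8.0 phosphate; % inhibition versus DMSO control.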

[2] = recombinant P. aeruginosa LpxC 5 nM, substrate 10 μM, 25° C., 120 minutes, read-out: IC50

Compound	MIC (E. coli ATCC 25922)	MIC (K. pneumoniae ATCC13883)	IC50 [1, 2]	IC50 [1]
C[C@H](O)c1nccn1Cc1cc(-c2ccc(C#Cc3ccc(OCCCN4CCOCC4)cc3)cc2)on1 [Example 75, (S)-1-(1-((5-(4-((4-(3-morpho-linopropoxy)phenyl)ethynyl)phenyl)isoxazol-3-yl)methyl)-1H-imidazol-2-yl)ethan-1-ol]	1 µg/mL (≈ 1.95 µM)	2 µg/mL (≈ 3.9 µM)	61.2 nM	–
C[C@H](O)c1nccn1Cc1cc(-c2ccc(C#Cc3cccnc3)cc2)on1 [Example 9, (S)-1-(1-((5-(4-(pyridin-3-ylethynyl)phenyl)isoxazol-3-yl)methyl)-1H-imidazol-2-yl)ethan-1-ol]	1 µg/mL (≈ 2.7 µM)	2 µg/mL (≈ 5.4 µM)	27.1 nM	–
CCOC(=O)CC1CN(Cc2ccc(C#Cc3ccc(-c4cc(Cn5ccnc5[C@H](C)O)no4)cc3)cc2)C1 [Example 111, Ethyl (S)-2-(1-(4-((4-(3-((2-(1-hydroxyethyl)-1H-imidazol-1-yl)methyl)isoxazol-5-yl)phenyl)ethynyl)benzyl)azetidin-3-yl)acetate]	1 µg/mL (≈ 1.91 µM)	1 µg/mL (≈ 1.91 µM)	8.59 nM	–
C[C@H](O)c1nccn1Cc1cc(-c2ccc(C#Cc3ccc(CN4CC(CC(=O)O)C4)nc3)cc2)on1 [Example 115, (S)-2-(1-((5-((4-(3-((2-(1-hydroxyethyl)-1H-imidazol-1-yl)methyl)isoxazol-5-yl)phenyl)ethynyl)pyridin-2-yl)methyl)azetidin-3-yl)acetic acid]	2 µg/mL (≈ 4.02 µM)	8 µg/mL (≈ 16.1 µM)	24.5 nM	–
C[C@H](O)c1nccn1Cc1cc(-c2ccc(C#Cc3ccc(CC(=O)O)nc3)cc2)on1 [Example 39, (S)-2-(5-((4-(3-((2-(1-hydroxyethyl)-1H-imidazol-1-yl)methyl)isoxazol-5-yl)phenyl)ethynyl)pyridin-2-yl)acetic acid]	0.5 µg/mL (≈ 1.17 µM)	1 µg/mL (≈ 2.33 µM)	19.9 nM	–
C[C@H](O)c1nccn1Cc1cc(-c2ccc(C#Cc3ccc(CNCCN)cc3)cc2)on1 [Example 57, (S)-1-(1-((5-(4-((4-(((2-aminoethyl)amino)methyl)phenyl)ethynyl)phenyl)isoxazol-3-yl)methyl)-1H-imidazol-2-yl)ethan-1-ol]	2 µg/mL (≈ 4.53 µM)	4 µg/mL (≈ 9.06 µM)	14.1 nM	–
C[C@H](O)c1nccn1Cc1cc(-c2ccc(C#Cc3ccc(OC4CCN(C)CC4)cc3)cc2)on1 [Example 44, (S)-1-(1-((5-(4-((4-((1-methylpiperidin-4-yl)oxy)phenyl)ethynyl)phenyl)isoxazol-3-yl)methyl)-1H-imidazol-2-yl)ethan-1-ol]	2 µg/mL (≈ 4.14 µM)	8 µg/mL (≈ 16.6 µM)	18.6 nM	–
C[C@H](O)c1nccn1Cc1cc(-c2ccc(C#Cc3ccc(CO)cc3)cc2)on1 [Example 46, (S)-1-(1-((5-(4-((4-(hydroxymethyl)phenyl)ethynyl)phenyl)isoxazol-3-yl)methyl)-1H-imidazol-2-yl)ethan-1-ol]	0.25 µg/mL (≈ 0.626 µM)	0.5 µg/mL (≈ 1.25 µM)	23 nM	–
C[C@H](O)c1nccn1Cc1cc(-c2ccc(C#Cc3ccc(CNCCS(C)(=O)=O)cc3)cc2)on1 [Example 49, (S)-1-(1-((5-(4-((4-(((2-(methylsulfonyl)ethyl)amino)methyl)phenyl)ethynyl)phenyl)isoxazol-3-yl)methyl)-1H-imidazol-2-yl)ethan-1-ol]	1 µg/mL (≈ 1.98 µM)	4 µg/mL (≈ 7.93 µM)	–	11.1 nM
C[C@H](O)c1nccn1Cc1cc(-c2ccc(C#Cc3ccc(CN4CCOCC4)cc3)cc2)no1 [Example 3, (S)-1-(1-((3-(4-((4-(morpholinomethyl)phenyl)ethynyl)phenyl)isoxazol-5-yl)methyl)-1H-imidazol-2-yl)ethan-1-ol]	1 µg/mL (≈ 2.13 µM)	2 µg/mL (≈ 4.27 µM)	24.9 nM	–
C[C@H](O)c1nccn1Cc1cc(-c2ccc(C#Cc3ccc(C(N)=O)cc3)cc2)on1 [Example 23, (S)-4-((4-(3-((2-(1-hydroxyethyl)-1H-imidazol-1-yl)methyl)isoxazol-5-yl)phenyl)ethynyl)benzamide]	0.25 µg/mL (≈ 0.606 µM)	1 µg/mL (≈ 2.42 µM)	7.75 nM	–
C[C@H](O)c1nccn1Cc1cc(-c2ccc(C#Cc3ccc(CNCC(N)=O)cc3)cc2)on1 [Example 35, (S)-2-((4-((4-(3-((2-(1-hydroxyethyl)-1H-imidazol-1-yl)methyl)isoxazol-5-yl)phenyl)ethynyl)benzyl)amino)acetamide]	0.25 µg/mL (≈ 0.549 µM)	0.5 µg/mL (≈ 1.1 µM)	–	14.9 nM
C[C@H](O)c1nccn1Cc1cc(-c2ccc(C#Cc3ccc(C(=O)N4CCOCC4)cc3)cc2)on1 [Example 6, (S)-(4-((4-(3-((2-(1-hydroxyethyl)-1H-imidazol-1-yl)methyl)isoxazol-5-yl)phenyl)ethynyl)phenyl)(morpholino)methanone]	2 µg/mL (≈ 4.14 µM)	4 µg/mL (≈ 8.29 µM)	12.9 nM	–
C[C@H](O)c1nccn1Cc1cc(-c2ccc(C#Cc3ccc(C(=O)NCCO)cc3)cc2)on1 [Example 25, (S)-N-(2-Hydroxyethyl)-4-((4-(3-((2-(1-hydroxyethyl)-1H-imidazol-1-yl)methyl)isoxazol-5-yl)phenyl)ethynyl)benzamide]	1 µg/mL (≈ 2.19 µM)	4 µg/mL (≈ 8.76 µM)	–	20.3 nM
C[C@H](O)c1nccn1Cc1cc(-c2ccc(C#Cc3cccc(OCC(N)=O)c3)cc2)on1 [Example 64, (S)-2-(3-((4-(3-((2-(1-hydroxyethyl)-1H-imidazol-1-yl)methyl)isoxazol-5-yl)phenyl)ethynyl)phenoxy)acetamide]	4 µg/mL (≈ 9.04 µM)	2 µg/mL (≈ 4.52 µM)	21.6 nM	–
CNC(=O)c1ccc(C#Cc2ccc(-c3cc(Cn4ccnc4[C@H](C)O)no3)cc2)cc1 [Example 43, (S)-4-((4-(3-((2-(1-hydroxyethyl)-1H-imidazol-1-yl)methyl)isoxazol-5-yl)phenyl)ethynyl)-N-methylbenzamide]	1 µg/mL (≈ 2.34 µM)	8 µg/mL (≈ 18.8 µM)	36.7 nM	–
C[C@H](O)c1nccn1Cc1cc(-c2ccc(C#Cc3ccc(CN4CCOCC4)cc3)cc2)on1 [Example 2, (S)-1-(1-((5-(4-((4-(morpholinomethyl)phenyl)ethynyl)phenyl)isoxazol-3-yl)methyl)-1H-imidazol-2-yl)ethan-1-ol]	0.5 µg/mL (≈ 1.07 µM)	1 µg/mL (≈ 2.13 µM)	3.07 nM	–
C[C@H](O)c1nccn1Cc1cc(-c2ccc(C#Cc3ccc(CCC(N)=O)nc3)cc2)on1 [Example 40, (S)-3-(5-((4-(3-((2-(1-hydroxyethyl)-1H-imidazol-1-yl)methyl)isoxazol-5-yl)phenyl)ethynyl)pyridin-2-yl)propanamide]	1 µg/mL (≈ 2.27 µM)	4 µg/mL (≈ 9.06 µM)	16.7 nM	–
C[C@H](O)c1nccn1Cc1cc(-c2ccc(C#Cc3ccc(CNCC(N)=O)nc3)cc2)on1 [Example 61]	1 µg/mL (≈ 2.19 µM)	4 µg/mL (≈ 8.76 µM)	74.2 nM	–
C[C@H](O)c1nccn1Cc1cc(-c2ccc(C#Cc3ccc(CN4CCC(N5CCOCC5)CC4)cc3)cc2)on1 [Example 51, (S)-1-(1-((5-(4-((4-((4-morpholinopiperidin-1-yl)methyl)phenyl)ethynyl)phenyl)isoxazol-3-yl)methyl)-1H-imidazol-2-yl)ethan-1-ol]	2 µg/mL (≈ 3.63 µM)	8 µg/mL (≈ 14.5 µM)	6.7 nM	–
C[C@H](O)c1nccn1Cc1cc(-c2ccc(C#Cc3ccc(C(N)=O)nc3)cc2)on1 [Example 28, (S)-5-((4-(3-((2-(1-Hydroxyethyl)-1H-imidazol-1-yl)methyl)isoxazol-5-yl)phenyl)ethynyl)picolinamide]	1 µg/mL (≈ 2.42 µM)	2 µg/mL (≈ 4.84 µM)	–	19.9 nM
C[C@H](O)c1nccn1Cc1cc(-c2ccc(C#Cc3ccc(CN4CCN(C)CC4)cc3)cc2)on1 [Example 48, (S)-1-(1-((5-(4-((4-((4-methylpiperazin-1-yl)methyl)phenyl)ethynyl)phenyl)isoxazol-3-yl)methyl)-1H-imidazol-2-yl)ethan-1-ol]	2 µg/mL (≈ 4.15 µM)	8 µg/mL (≈ 16.6 µM)	9.77 nM	–
